Assay type in all cases: cell-based
One assay relates to algae. Description: Surface protection, algal resistance of coating (BBA MOAT 33). Conditions: after leaching with running water for 72 hours. As to the method:
Testing was performed according to the BS3900 G6 and BBA MOAT 33 methods for evaluation versus fungi and algae, respectively. The methods involve painting a substrate panel with the coating and leaching under running water for 72 hours. The substrates are incubated for 56 days after being inoculated with fungi or algae. Performance is judged by comparing with suitable control samples i.e without biocide, a positive control and for fungi with substrate panels that have not been leached.
(§1) Performance rating of painted test substrates is as follows and a score of 0, 1 and 2 is considered as a pass • 0=no growth • 1=trace of growth • 2=growth on 1-10% of test face • 3=growth on 10-30% of test face • 4=growth on 30-70% of test face • 5=growth on 70-100% of test face. Surface Protection using CuHDO

In a further assay the test system is fungi. Description: Surface protection, fungal resistance of coating (BS3900 G6). Also noted: key: 0=no growth; 1=trace of growth; 2=growth on 1-10% of test face; 3=growth on 10-30% of test face; 4=growth on 30-70% of test face; 5=growth on 70-100% of test face. As to the method:
Testing was performed according to the BS3900 G6 and BBA MOAT 33 methods for evaluation versus fungi and algae, respectively. The methods involve painting a substrate panel with the coating and leaching under running water for 72 hours. […] Performance is judged by comparing with suitable control samples i.e without biocide, a positive control and for fungi with substrate panels that have not been leached.
as §1

For assay [1], the system named is Bacterial and Fungal Challenges. Description: In can preservation challenge test (IBRG draft method), overall efficacy. Conditions: 1000 ppm, acrylic ester and acrylonitrile polymer dispersion. On the procedure: (§2) Tests were performed according to the IBRG draft method (5.2, June 2001). This briefly entails the substrate being dosed with the biocide and allowed to equilibrate. Samples are inoculated once per week for 4 weeks and checked for recovery of organisms at 1, 3 and 7 days after inoculation.
(§3) Results to show efficacy in a polymer based on an acrylic ester and acrylonitrile polymer dispersion using: • 1000 ppm CuHDO • 1000 ppm in-situ generated CuHDO (by blending within the matrix or medium, 315 ppm of basic copper carbonate containing 57.5% copper content with 3492 ppm of a 30% water soluble solution of potassium salt of N′-hydroxy-N-cyclohexyldiazenium oxide (KHDO))
(§4) Using the following performance rating: • P=Pass (0-100 colonies) • F=Fail (101->1000 colonies)

The test system of the next assay is Bacterial Challenges. Description: In can preservation challenge test (IBRG draft method), bacterial challenges. To be noted: 1000 ppm, acrylic ester and acrylonitrile polymer dispersion. On the procedure: as §2, §3, §4
In another assay the test system is Fungal Challenges. Description: In can preservation challenge test (IBRG draft method), fungal challenges. To be noted: 1000 ppm, acrylic ester and acrylonitrile polymer dispersion. As to the method: as §2, §3, §4
Setting [2] is: 0.15% by weight, after leaching with running water for 72 hours.
Setting [3] is: 0.15% by weight, coating as applied.
Setting [4] is: 0.2% by weight, after leaching with running water for 72 hours.
[5] abbreviates: 0.2% by weight, coating as applied.
Setting [6] is: 1.5% by weight, after leaching with running water for 72 hours.
[7] abbreviates: 1.5% by weight, coating as applied.
Setting [8] is: 0.5% by weight, after leaching with running water for 72 hours.
Setting [9] is: 0.5% by weight, coating as applied.

`[Cu+2].[O-]/N=[N+](\[O-])C1CCCCC1.[O-]/N=[N+](\[O-])C1CCCCC1` [CuHDO, copper salt of N′-hydroxy-N-cyclohexyl-diazenium oxide]: the entries for the “ALGAL GROWTH ASSESSMENT 28 days” value in the assay on algae (0.15% by weight), in the assay on algae (0.2% by weight) and in the assay on algae (1.5% by weight) were 2/2, 0.1 and 0/0, respectively. Moreover, the “ALGAL GROWTH ASSESSMENT 42 days” value with algae (0.15% by weight) is reported as 1/1; in the assay on algae (1.5% by weight), 0/0. Also, the “ALGAL GROWTH ASSESSMENT 56 days” value with algae (0.15% by weight) is recorded as 0/1; in the assay on algae (0.2% by weight) it was 1.2; with algae (1.5% by weight), 0/0. The “FUNGAL GROWTH ASSESSMENT Plaster Substrate 28 days” value is recorded as 1 in the assay with fungi (setting [2]); 1 in the assay on fungi (setting [3]); 2 (2=growth on 1-10% of test face) in the assay on fungi (setting [4]); 1 in the assay on fungi (setting [5]); 1 with fungi (setting [6]); 1 with fungi (setting [7]). Also, the “FUNGAL GROWTH ASSESSMENT Plaster Substrate 42 days” value in the assay on fungi (setting [2]), in the assay with fungi (setting [3]), with fungi (setting [6]) and in the assay with fungi (setting [7]) was 1 each time. In addition, the “FUNGAL GROWTH ASSESSMENT Plaster Substrate 56 days” value in the assay on fungi (setting [2]) is 2 (2=growth on 1-10% of test face); with fungi (setting [3]) it was 1; in the assay with fungi (setting [4]), 3 (3=growth on 10-30% of test face); in the assay on fungi (setting [5]), 1; with fungi (setting [6]), 1; in the assay with fungi (setting [7]), 1. Also, the “FUNGAL GROWTH ASSESSMENT Wood Substrate 28 days” value is on record as 1 in the assay with fungi (setting [2]); 1 in the assay with fungi (setting [3]); 2 (2=growth on 1-10% of test face) with fungi (setting [4]); 1 with fungi (setting [5]); 1 in the assay on fungi (setting [6]); 1 in the assay with fungi (setting [7]). Moreover, the “FUNGAL GROWTH ASSESSMENT Wood Substrate 42 days” value with fungi (setting [2]), in the assay with fungi (setting [3]), with fungi (setting [6]) and in the assay with fungi (setting [7]) was 1 each time. Moreover, the “FUNGAL GROWTH ASSESSMENT Wood Substrate 56 days” value was 2 (2=growth on 1-10% of test face) with fungi (setting [2]); 1 in the assay with fungi (setting [3]); 3 (3=growth on 10-30% of test face) in the assay on fungi (setting [4]); 1 with fungi (setting [5]); 1 in the assay with fungi (setting [6]); 1 with fungi (setting [7]). Further, the figures for the “Overall Efficacy” value in assay [1] (pH 5), in assay [1] (pH 7) and in assay [1] (pH 9) were “F^2 (F=Fail (101->1000 colonies))”, “P (P=Pass (0-100 colonies))” and “P (P=Pass (0-100 colonies))”, respectively. The “Bacterial Challenges” value in the assay on Bacterial Challenges (pH 5), with Bacterial Challenges (pH 7) and with Bacterial Challenges (pH 9) was “P (P=Pass (0-100 colonies))” in each case. In addition, the “Fungal Challenges” value with Fungal Challenges (pH 5) was “F^2 (F=Fail (101->1000 colonies))”; in the assay with Fungal Challenges (pH 7) it was “P (P=Pass (0-100 colonies))”; with Fungal Challenges (pH 9) it was “P (P=Pass (0-100 colonies))”.
Consider `CCCCNC(=O)OCC#CI` [IPBC, reference compound], for which, in the assay on fungi (setting [8]), the “FUNGAL GROWTH ASSESSMENT Plaster Substrate 28 days” value came to 1, the “FUNGAL GROWTH ASSESSMENT Plaster Substrate 56 days” value was found to be 1, the “FUNGAL GROWTH ASSESSMENT Wood Substrate 28 days” value came out at 1 and the “FUNGAL GROWTH ASSESSMENT Wood Substrate 56 days” value is on record as 1. Moreover, in the assay with fungi (setting [9]), the “FUNGAL GROWTH ASSESSMENT Plaster Substrate 28 days” value is 1, the “FUNGAL GROWTH ASSESSMENT Plaster Substrate 56 days” value is recorded as 1, the “FUNGAL GROWTH ASSESSMENT Wood Substrate 28 days” value came out at 1 and the “FUNGAL GROWTH ASSESSMENT Wood Substrate 56 days” value came to 1.
As for `CCNc1nc(NC(C)(C)C)nc(SC)n1` [Terbutryn, reference compound], in the assay on algae (0.5% by weight), the “ALGAL GROWTH ASSESSMENT 28 days” value was determined as 0.0 and the “ALGAL GROWTH ASSESSMENT 56 days” value worked out at 0.0.

These data come from patent US7910569B2, “Microbicidal compositions and their use” (BASF Aktiengesellschaft, priority 2003, dated 2011).
